Measurements: US20070281991A1, “Preparation Of Phenol-Amide Compounds With Anti-Oxidizing Properties” (priority 2004, published 2007)

Experiment: Inhibitory effect on free radical diphenylpicrylhydrazide, UV spectrophotometry at 517 nm
Conditions: for Inhibition % / Absorbance at 517 nm: ethanolic solution, 20 micromoles by liter of compound, 100 micromeres by liter of radical (VIII), 30 minutes at 20° C.; for Absorbance at 517 nm: vat 1 cm, control only 1.15
Experimental: The anti-oxidizing potential in solution of the amide-phenol compounds (I) and (II) was evaluated by the degree of their reaction with radical free diphenyl-picrylhydrazide (VIII) following C. T. Ho, Journal of Agricultural and Food Chemistry, 1999, p.
The inhibitory effect of the free radicals claimed for the compounds (Ia) and (IIa) has been evaluated by the measure of their absorbencies in UV spectrophotometry at 517 nanometers in the presence of an excess of radical diphenylpicrylhydrazide (VIII).
Ethanolic solutions containing 20 micromoles by liter of compound to test and 100 micromeres by liter of radical (VIII) agitated for 30 minutes at 20° C. and placed in a vat 1 cm of length.

Structure (SMILES): COC(=O)c1cc(O)c(O)c(O)c1 [Gallate of methyl (IIIa), methyl gallate]
- Inhibition %: 71%
- Absorbance at 517 nm: 0.33

Structure (SMILES): CCCCCCCCCCC(CO)NC(=O)c1cc(O)c(O)c(O)c1 (stereo not shown) [Gallic amide (Ia)]
- inhibitory activity compared with TROLOX and methyl gallate (in words) (diphenylpicrylhydrazide radical test): lower than TROLOX but comparable to that of methyl gallate
- Inhibition %: 70%
- Absorbance at 517 nm: 0.35

Structure (SMILES): Cc1c(C)c2c(c(C)c1O)CCC(C)(C(=O)O)O2 (stereo not shown) [TROLOX (IVa), 6-hydroxy-2,5,7,8-tetramethyl chroman-2-carboxylic acid]
- Inhibition %: 91%
- Absorbance at 517 nm: 0.10
